In patent publication US20040067998A1, “Antifungal and/or antiparasitic pharmaceutical composition and novel indole derivatives as active principle of such a composition” (priority 2003, published 2004):
Converted amounts (≈) assume the structure as drawn. “And” between values parts separate entries of the source, which are not always exact repeats. Identical values can stand only once. Like-named read-outs stand apart in the source and are kept apart here. Blank lines part the entries; values can stand above or below the molecule they belong to.

Assays:
Type in all cases: cell-based
[1] = system: Candida albicans (strain n° CA980001); assay: Antifungal activity on a clinical strain of Candida albicans (MTT colorimetric microplate test); details: for CMI or CI80 Candida albicans (CA980001) / MIC: strain CA980001; for activity of inhibition of Candida albicans (in words): summary of Tables 27 to 40; for MIC: read-out: CMI or CI80 Candida albicans (CA980001)
[2] = system: Aspergillus fumigatus (strain n°AF 980003); assay: Antifungal activity on a clinical strain of Aspergillus fumigatus (Alamar Blue microplate test); details: for MIC / CMI or CI80 Aspergillus fumigatus (AF980003): strain AF980003; for MIC: read-out: CMI or CI80 Aspergillus fumigatus (AF980003)
[3] = system: promastigote stage of Leishmania mexicana; assay: Antiparasitic activity on the promastigote form of Leishmania (MTT)

SMILES: Fc1ccc(Cn2c(Cn3ccnc3)cc3ccccc32)cc1.O=[N+]([O-])O [3n]
- CMI or CI80 Candida albicans (CA980001) ([1]; 24 h at 37° C., MTT): 16 ± 6 μM and 6 ± 2 μg/ml

SMILES: Fc1ccc(Cn2ccc3ccc(Cn4ccnc4)cc32)cc1.O=[N+]([O-])O [19n]
- CMI or CI80 Candida albicans (CA980001) ([1]; 24 h at 37° C., MTT): 77 ± 1 μM and 28.36 ± 1 μg/ml
- MIC ([2]; Alamar Blue): >100 µM

SMILES: CCn1c(C(c2cccc(Br)c2)n2ccnc2)c(C)c2ccccc21.O=[N+]([O-])O (stereo not shown) [26n]
- CMI or CI80 Candida albicans (CA980001) [1]: 60 ± 1 μM and 27 ± 1 μg/mL

SMILES: CCn1c(C(c2ccc(Br)cc2)n2ccnc2)c(C)c2ccccc21.O=[N+]([O-])O (stereo not shown) [27n]
- CMI or CI80 Candida albicans (CA980001) [1]: 57 ± 4 μM and 25 ± 2 μg/mL

SMILES: CCn1c(C(c2cccc(Cl)c2)n2ccnc2)c(C)c2ccccc21.O=[N+]([O-])O (stereo not shown) [28n]
- CMI or CI80 Candida albicans (CA980001) [1]: 58 ± 2 μM and 24 ± 1 μg/mL

SMILES: CCn1c(C(c2ccc(Cl)cc2)n2ccnc2)c(C)c2ccccc21.O=[N+]([O-])O (stereo not shown) [29n]
- CMI or CI80 Candida albicans (CA980001) [1]: 6 ± 1 μM and 2 ± 1 μg/mL
- activity of inhibition of Candida albicans (in words) [1]: significant activity

SMILES: CCn1cc(C(c2cccc(Cl)c2)n2ccnc2)c2ccccc21.O=[N+]([O-])O (stereo not shown) [40n]
- CMI or CI80 Candida albicans (CA980001) [1]: 7 ± 1 μM and 3.1 ± 1 μg/mL
- activity of inhibition of Candida albicans (in words) [1]: significant activity

SMILES: CCn1cc(C(c2ccc(Cl)cc2)n2ccnc2)c2ccccc21.O=[N+]([O-])O (stereo not shown) [41n]
- CMI or CI80 Candida albicans (CA980001) [1]: 19 ± 10 μM and 8 ± 4 μg/mL

SMILES: CCn1cc(C(c2ccc(Cl)cc2Cl)n2ccnc2)c2ccccc21.O=[N+]([O-])O (stereo not shown) [42n]
- CMI or CI80 Candida albicans (CA980001) [1]: 73 ± 3 μM and 32 ± 1 μg/mL

SMILES: CCn1ccc2cccc(C(c3cccc(Cl)c3)n3ccnc3)c21.O=[N+]([O-])O (stereo not shown) [55n]
- CMI or CI80 Candida albicans (CA980001) [1]: 0.039 µg/mL
- MIC [1]: 0.098 µM
- activity of inhibition of Candida albicans (in words) [1]: most active
- MIC [2]: >100 µM

SMILES: CCn1ccc2cccc(C(c3ccc(Cl)cc3)n3ccnc3)c21.O=[N+]([O-])O (stereo not shown) [56n]
- CMI or CI80 Candida albicans (CA980001) [1]: 0.16 µg/mL
- MIC [1]: 0.4 µM
- activity of inhibition of Candida albicans (in words) [1]: most active

SMILES: CC(c1cn(Cc2ccc(F)cc2F)c2ccccc12)n1ccnc1.O=[N+]([O-])O (stereo not shown) [69n]
- CMI or CI80 Candida albicans (CA980001) [1]: 65 ± 6 μM and 26 ± 5 μg/mL
- CMI or CI80 Aspergillus fumigatus (AF980003) [2]: 64 ± 5 μM and 21.59 μg/mL
- activity against Aspergillus fumigatus (in words) ([2]; summary of Tables 27 to 40): strong activity

SMILES: Cc1c(C(C)n2ccnc2)c2ccccc2n1Cc1ccc(Cl)cc1Cl.O=[N+]([O-])O (stereo not shown) [71n]
- CMI or CI80 Candida albicans (CA980001) [1]: 52 ± 3 μM and 23.31 μg/mL
- CMI or CI80 Aspergillus fumigatus (AF980003) [2]: 74 ± 3 μM and 28.44 μg/mL

SMILES: CCn1c(C(c2ccc(F)cc2)n2ccnc2)c(C)c2ccccc21 (stereo not shown) [Cpsé 31, 1-Ethyl-2-[(4-fluorophenyl)(1H-imidazol-1-yl)methyl]-3-methyl-1H-indole]
- MIC ([1]; Candida albicans, 24 h at 37° C., MTT): 58 ± 4 µM (≈ 19.3 µg/mL)
- CMI or CI80 Candida albicans (CA980001) ([1]; 24 h at 37° C., MTT, listed as 18): 18 ± 1 µg/mL

- MIC ([2]; Aspergillus fumigatus): 0.71 µM (≈ 0.501 µg/mL)
SMILES: CCC(C)n1ncn(-c2ccc(N3CCN(c4ccc(OCC5COC(Cn6cncn6)(c6ccc(Cl)cc6Cl)O5)cc4)CC3)cc2)c1=O (stereo not shown) [Itraconazole]
- CMI or CI80 Aspergillus fumigatus (AF980003) [2]: 0.5 µg/mL

SMILES: N#Cc1ccc(Cn2cc(Cn3ccnc3)c3cc(Br)ccc32)cc1 [compound 13]
- CMI or CI80 Candida albicans (CA980001) ([1]; 24 h at 37° C., MTT): 59 ± 5 μM and 23 ± 2 μg/ml

SMILES: Fc1ccc(Cn2ccc3c(Cn4ccnc4)cccc32)cc1 [compound 17]
- CMI or CI80 Candida albicans (CA980001) ([1]; 24 h at 37° C., MTT): 54 ± 1 μM and 16.49 ± 1 μg/ml
- CMI or CI80 Aspergillus fumigatus (AF980003) ([2]; Alamar Blue): 72 ± 3 μM and 21.99 ± 2 μg/ml

SMILES: CCn1c(C(c2ccc(Cl)cc2Cl)n2ccnc2)c(C)c2ccccc21 (stereo not shown) [compound 30]
- CMI or CI80 Candida albicans (CA980001) [1]: 76 ± 2 μM and 25 ± 1 μg/mL

- MIC [1]: <0.001 µM
SMILES: OC(Cn1cncn1)(Cn1ccc2ccccc21)c1ccc(C(F)(F)F)cc1 (stereo not shown) [compound 79]

- MIC [1]: <0.001 µM
SMILES: CC(n1ccc2ccccc21)C(O)(Cn1cncn1)c1ccc(F)cc1F (stereo not shown) [compound 81]

SMILES: Brc1ccc(C(Cn2ccc3ccccc32)n2ccnc2)cc1 (stereo not shown) [compound 84]
- CI50 Leishmania mexicana Promastigotes [3]: 3.6 ± 0.4 µg/mL (≈ 9.83 µM)
- IC50 ([3]; read-out: CI50 Leishmania mexicana Promastigotes): 8.45 ± 1.02 µM
- CMI or CI80 Aspergillus fumigatus (AF980003) [2]: 68 ± 3 μM and 29 ± 1 μg/mL
